Key:
HDAC [1] = experiment: Homogeneous cellular histone deacetylase assay, Hela; type: cell-based, human
Method: (§1) The enzymatic activity of HDAC was measured in intact cells using the homogeneous cellular assay method. A cell-permeable peptide Boc-K(Ac)-AMC used as the HDAC substrate, after deacetylation it is cleaved by trypsin to release the fluorescent 7-amino-4-methylcoumarin (AMC) and further quantified.
(§2) The manual assay was developed by Thomas's group. […] After 24 h, 9 μl inhibitors with different concentration were added to the HeLa cells and incubation was continued for 3 h under cell culture conditions. After this treatment period, 10 μl of a 2 mM stock solution of the substrate Boc-K(Ac)-AMC was added into the 96 well plates with Hela cells and inhibitors. […] A549 and K562 cell lines used the same method, respectively. IC50s were calculated using GraphPad Prizm statistical package with sigmoidal variable slope dose response curve fit.

HDAC [2] = experiment: Homogeneous cellular histone deacetylase assay, K562; type: cell-based, human
Method: as §1, §2

HDAC [3] = experiment: Homogeneous cellular histone deacetylase assay, A549; type: cell-based, human; conditions: Supplementary Table 2; NA = not active up to highest concentration tested (100 μM); >100 = IC50 not reached at 100 μM
Method: as §1, §2

[4] = molecular target: T1, Mouse histone methyltransferase G9a (969-1263) (Mus musculus, UniProt Q9Z148); experiment: MALDI-TOF methylation study of G9a enzymatic activity (H3 peptide, SAM); type: biochemical
T1 construct: The 6His-sumo mG9a (969-1263) protein was purified using the following procedure; 6His-sumo (N, cleaved yes); made in house; host or cells: Escherichia coli BL21 (DE3)
T1 sequence (Q9Z148 969-1263): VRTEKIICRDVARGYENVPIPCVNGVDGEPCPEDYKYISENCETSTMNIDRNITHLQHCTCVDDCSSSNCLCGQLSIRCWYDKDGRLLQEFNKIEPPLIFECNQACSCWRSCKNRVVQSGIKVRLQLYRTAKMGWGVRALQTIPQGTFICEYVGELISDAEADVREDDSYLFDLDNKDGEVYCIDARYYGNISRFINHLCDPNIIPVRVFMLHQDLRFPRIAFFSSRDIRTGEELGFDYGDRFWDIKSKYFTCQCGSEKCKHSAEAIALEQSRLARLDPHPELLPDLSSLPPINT
Method: Figure 3 compounds were synthesized from the commercially available starting material 1. An initial displacement reaction using a primary amine was used to introduce the C4 selective substitution, with the second displacement to introduce the linker at the C2 position following the microwave assisted reaction previously reported. Boc-protected ethylene diamine was treated with compound 2 at 160°C in a microwave for 10 min to yield product 3 with excellent yield. Afterward, the amine 3 was deprotected with TFA/DCM, and the free amine was treated with corresponding monomethyl esters (carbon chain 2-6) in the presence of coupling reagent EDCI and HOBt for about 8 hours to produce mono methyl ester substituted at the C2 position. The ester compounds further treated with hydroxylamine in water to get the corresponding hydroxamic acid derivatives, which were purified using reverse phase flash chromatography to obtain compounds 4-7 and 4a-7a in good yield. Synthesis of compounds in Figure 4 requires the C6 demethoxy core, and this was synthesized according to the reported procedure to yield 10 [45]. […] Compounds with the HDAC pharmacophore at the C4 position (Figure 2B) were synthesized from the starting material 1. […] A parallel synthesis and testing strategy were used in establishing the primary SAR, with the clear rationalization of the structure and activity at each stage we could reduce the synthetic targets. Initially, we evaluated the G9a potential after the introduction of HDAC pharmacophore. A biochemical assay using MALDI-TOF was used to visualize the effects of the synthesized compounds on G9a enzymatic activity, we carried out a biochemical reaction involving target enzyme G9a, methyl donor SAM and substrate H3 peptide at a concentration of 400 nM, 10 μM and 5 μM respectively.
Mouse histone methyltransferase G9a (969-1263) cDNA was amplified from the cDNA of BALB/c mouse thymus, and the fragment was sub-cloned into a vector with a 6His-sumo tag. The mouse G9a (mG9a) was expressed in Escherichia coli BL21 (DE3) by the addition of 1 mM isopropyl-1-thio-D-galactopyranoside (IPTG) and incubated overnight at 16°C.
The in vitro inhibition of G9a by the synthesized compounds were measured by MALDI-TOF mass spectrum (Bruker MALDI TOF/TOF Analyzer). 400 nM purified G9a, 5 μM synthesized histone H3 (1-21) and 10 μM non-radioactive S-adenosyl methionine (Sigma) were added in reaction buffer (50 mM HEPES pH 8.0, 5 μg/ml BSA and 0.1% β-Mercaptoethanol) with or without inhibitors (5 μM). The reaction was incubated at room temperature for 30 min, and stopped by TFA. 1 μl of the sample was mixed with CHCA matrix and m/z peaks were obtained at reflection positive mode. The results of mass spectrum were analyzed using the Bruker flex analysis software, a detailed description of data processing is provided as supplementary information (S3).
[…]
MALDI spectrums were collected using Bruker flex % conversion to product is also C, from this to get the control software and analyzed by flex analysis. After %maximal activity (%MA), C was compared to the % labelling each cluster peaks of H3K9Me0, H3K9Me1 conversion when no inhibitor was used (D). and H3K9Me2 for all of the tested concentrations, area Finally % inhibition was found by subtracting under the cluster (AUC) were extracted by using the same %MA from 100 […]
flex analysis software. % abundance of each peak was Example: % methylation levels and % inhibition calculated by following formula, when used 5 μM compound 14
A = % Abundance of (H3K9Me0) = area of A = 13.09
B = % Abundance of (H3K9Me1) = area of % conversion when no inhibitor was used D = 84.43 H3K9Me1/ (area of H3K9Me0+area of H3K9Me1 + area (average of six measurements) […]

A549 cells = experiment: Cell anti-proliferation / toxicity assay (CCK-8), A549; type: cell-based; conditions: Homo sapiens
Method: (§3) Cell anti-proliferation assays were performed to determine the toxicity of these inhibitors. […] These compounds were further evaluated against the control cell line HEK293 to test their toxicity with a non-cancerous cell line.
(§4) And then the cells were exposed to the different inhibitors with various concentrations for 72 h. […] EC50s were calculated using GraphPad Prizm statistical package with sigmoidal variable slope dose response curve fit.

HEK293 cells = experiment: Cell anti-proliferation / toxicity assay (CCK-8), HEK293 normal cell line; type: cell-based; conditions: Homo sapiens, Table 6, 72 h
Method: as §3, §4

[5] = Supplementary Table 2, NA = not active up to highest concentration tested (100 μM), >100 = IC50 not reached at 100 μM, read-out: IC50-HDAC Hela
[6] = Supplementary Table 2, NA = not active up to highest concentration tested (100 μM), >100 = IC50 not reached at 100 μM, read-out: IC50-HDAC K562
[7] = Supplementary Table 1, inhibitor 5 μM, 30 min, average of 3 values

IC50 (HDAC [1]; [5])	IC50 (HDAC [2]; [6])	IC50 (HDAC [3])	inhibition at 5 µM [4, 7]	SMILES	further results
> 100 µM	> 100 µM	> 100 µM	47.9 ± 12.9%	COc1ccc2c(NC3CCN(C)CC3)nc(NCCNC(=O)CCCCC(=O)NO)nc2c1 [Compound 15a, N1-hydroxy-N6-(2-((7-methoxy-4-((1-methylpiperidin-4-yl)amino)quinazolin-2-yl)amino)ethyl)adipamide]	–
–	–	–	38 ± 4.99%	COc1cc2nc(NCCNC(=O)CCCCCC(=O)NO)nc(NC3CCN(Cc4ccccc4)CC3)c2cc1OC [Compound 5b, N1-(2-((4-((1-benzylpiperidin-4-yl)amino)-6,7-dimethoxyquinazolin-2-yl)amino)ethyl)-N7-hydroxyheptanediamide]	HDAC inhibition (in words) (HDAC [1]; candidates tested in both Hela and K562 cell lines, compared with Compound 14): did not show decent inhibition of HDAC
> 100 µM	> 100 µM	> 100 µM	40.3 ± 15.3%	COc1ccc2c(NCCNC(=O)CCCCCC(=O)NO)nc(N3CCCN(C)CC3)nc2c1 [Compound 22, N1-hydroxy-N7-(2-((7-methoxy-2-(4-methyl-1,4-diazepan-1-yl)quinazolin-4-yl)amino)ethyl)heptanediamide]	–
–	–	–	15 ± 15.7%	COc1cc2nc(NCCNC(=O)CCCC(=O)NO)nc(NC3CCN(C(C)C)CC3)c2cc1OC [Compound 7a, N1-hydroxy-N5-(2-((4-((1-isopropylpiperidin-4-yl)amino)-6,7-dimethoxyquinazolin-2-yl)amino)ethyl)glutaramide]	–
–	–	–	47.5 ± 9.32%	COc1cc2nc(NCCNC(=O)CCCCCC(=O)NO)nc(NC3CCN(C(C)C)CC3)c2cc1OC [Compound 5a, N1-hydroxy-N7-(2-((4-((1-isopropylpiperidin-4-yl)amino)-6,7-dimethoxyquinazolin-2-yl)amino)ethyl)heptanediamide]	–
–	–	–	27 ± 12.2%	COc1cc2nc(NCCNC(=O)CCCCCCC(=O)NO)nc(NC3CCN(C)CC3)c2cc1OC [Compound 4, N1-(2-((6,7-dimethoxy-4-((1-methylpiperidin-4-yl)amino)quinazolin-2-yl)amino)ethyl)-N8-hydroxyoctanediamide]	–
> 100 µM	> 100 µM	> 100 µM	69.1 ± 24.5%	COc1ccc2c(NC3CCN(Cc4ccccc4)CC3)nc(NCCNC(=O)CCCCC(=O)NO)nc2c1 [Compound 15, N1-(2-((4-((1-benzylpiperidin-4-yl)amino)-7-methoxyquinazolin-2-yl)amino)ethyl)-N6-hydroxyadipamide]	–
> 100 µM	> 100 µM	> 100 µM	40.3 ± 13.8%	COc1ccc2c(NC3CCN(Cc4ccccc4)CC3)nc(NCCNC(=O)CCCC(=O)NO)nc2c1 [Compound 16, N1-(2-((4-((1-benzylpiperidin-4-yl)amino)-7-methoxyquinazolin-2-yl)amino)ethyl)-N5-hydroxyglutaramide]	EC50 (A549 cells; Supplementary Table 4, 72 h, NA = not active up to highest concentration tested (100 μM)): > 100 µM
> 100 µM	> 100 µM	> 100 µM	10.7 ± 25.9%	COc1cc2nc(N3CCCN(C)CC3)nc(NC3CCN(C(=O)CCCCCCC(=O)NO)CC3)c2cc1OC [Compound 19, 8-(4-((6,7-dimethoxy-2-(4-methyl-1,4-diazepan-1-yl)quinazolin-4-yl)amino)piperidin-1-yl)-N-hydroxy-8-oxooctanamide]	–
–	–	> 100 µM	29.7 ± 23.3%	COc1ccc2c(NC3CCN(Cc4ccccc4)CC3)nc(NCCNC(=O)CCCCCC(=O)NO)nc2c1 [Compound 14, N1-(2-((4-((1-benzylpiperidin-4-yl)amino)-7-methoxyquinazolin-2-yl)amino)ethyl)-N7-hydroxyheptanediamide]	EC50 (A549 cells; Table 6, 72 h, >100 = not reached at highest tested concentration (100 μM)): 36.2 ± 1.76 µM; EC50 (HEK293 cells): 19.95 ± 0.19 µM; IC50 (HDAC [1]; Table 3, Boc-K(Ac)-AMC substrate, intact Hela cells, read-out: Hela IC50): 13.8 ± 1.22 µM; IC50 (HDAC [2]; Table 3, Boc-K(Ac)-AMC substrate, intact K562 cells, read-out: K562 IC50): 5.74 ± 1.23 µM; inhibition at 5 µM ([4]; worked example, single spectrum, 5 μM compound): 69.5%; A = % Abundance of (H3K9Me0) ([4]; worked example, 5 μM compound): 13.09%; B = % Abundance of (H3K9Me1) ([4]; worked example, 5 μM compound): 61.18%; C = % Abundance of (H3K9Me2) (% conversion to product) ([4]; worked example, 5 μM compound): 25.72%; activity at 5 µM ([4]; worked example, 5 μM compound, relative to no inhibitor (84.43), read-out: % maximal activity (%MA)): 30.5%
–	–	–	11.2 ± 3.68%	COc1cc2nc(NCCNC(=O)CCCCCCC(=O)NO)nc(NC3CCN(C(C)C)CC3)c2cc1OC [Compound 4a, N1-hydroxy-N8-(2-((4-((1-isopropylpiperidin-4-yl)amino)-6,7-dimethoxyquinazolin-2-yl)amino)ethyl)octanediamide]	–
> 100 µM	> 100 µM	> 100 µM	14.6 ± 15.8%	COc1cc2nc(N3CCCN(C)CC3)nc(NC3CCN(C(=O)CCCCCC(=O)NO)CC3)c2cc1OC [Compound 20, 7-(4-((6,7-dimethoxy-2-(4-methyl-1,4-diazepan-1-yl)quinazolin-4-yl)amino)piperidin-1-yl)-N-hydroxy-7-oxoheptanamide]	–
–	–	–	19.6 ± 20.9%	COc1cc2nc(NCCNC(=O)CCCC(=O)NO)nc(NC3CCN(C)CC3)c2cc1OC [Compound 7, N1-(2-((6,7-dimethoxy-4-((1-methylpiperidin-4-yl)amino)quinazolin-2-yl)amino)ethyl)-N5-hydroxyglutaramide]	–
> 100 µM	> 100 µM	> 100 µM	40.3 ± 13.8%	COc1ccc2c(NC3CCN(C)CC3)nc(NCCNC(=O)CCCC(=O)NO)nc2c1 [Compound 16a, N1-hydroxy-N5-(2-((7-methoxy-4-((1-methylpiperidin-4-yl)amino)quinazolin-2-yl)amino)ethyl)glutaramide]	–

From publication PMC5609913, “Structure based design, synthesis and activity studies of small hybrid molecules as HDAC and G9a dual inhibitors” (Oncotarget, 2017)
